Measured values as given in patent publication US7166612B2, “Methods for reducing platelet activation platelet aggregaton or thrombosis” (Beth Israel Deaconess Medical Center, priority 2001, dated 2007).

Key:
mouse platelets = conditions: in words
[1] = test system: laser-induced thrombi in cremaster arterioles; assay type: in vivo
Source text: A preferred animal model involves intravital microscopy of laser-induced thrombi. The method is described by Rosen et al., 2001, Am J Pathol 158, 1613–1622, which is incorporated herein by reference. Minor variations of that method were employed as described below.
Experimental mice are pre-anesthetized and surgically prepared. A tracheal tube is placed to facilitate breathing and the jugular vein is canulated to allow for maintenance of anesthetic and introduction of compound. The cremaster muscle is then exteriorized. The muscle is affixed over a glass slide, allowing illumination from below. A steady drip of a sodium-bicarbonate buffered salt solution is maintained throughout the experiment to keep the exposed muscle moist. Blood flow in the muscle is visualized using a 40× water immersion lens and epi-illuminated with an appropriately filtered light source. Alexa 488-labeled anti-mouse CD41 antibody is injected through the jugular canulus to label platelets in vivo.
Thrombosis is initiated by damaging the vessel wall (of a 30 μm vessel) with a laser pulse from a MicroPoint LASER attached to the microscope. A LASER pulse is delivered, causing damage in an area smaller than 1 μm. The recruitment of platelets to the thrombus is then monitored by the accumulation of (activated) Alexa 488-labeled platelets at the ablation site using fluorescence microscopy, and the process is recorded digitally. The method thus permits in vivo analysis of platelet activation as measured by platelet aggregation and thrombosis.
The degree of embolization in an untreated mouse can be quantified using software for image analysis, e.g., BioQuant True Color Windows (Biometrics, Nashville, Tenn.), as described in Rosen et al., 2001, supra. The software package permits the determination of the “integrated optical density” or IOD of the thrombus.
Using quantitative intravital fluorescence videomicroscopy with high temporal resolution (111 images/second), the effect of PDE3 inhibition on the platelet recruitment into thrombi was directly observed over time. Platelets were fluorescently labeled by infusing rat-anti-mouse CD41 and Alexa 488-anti-rat IgG through a cannulated jugular vein. The cremaster microvasculature was exposed and mapped and suitable arteriole segments were selected for laser-induced injury. A series of control injuries were generated prior to infusion of the inhibitory compound. The power and the number of laser pulses required to generate each thrombus was recorded. Platelet accumulation to the thrombi following laser ablation was recorded using digital videomicroscopy. The thrombus total fluorescence in each frame of the videos was analyzed using Slidebook software for digital videomicroscopy. The pyridazinone compound was then infused. Following a 15 minute incubation, a series of experimental injuries were generated 250 μm proximal, with relationship to blood flow, of the first injury and the resultant thrombi were recorded. The power and the number of pulses required to induce the control thrombus was used to induce the experimental thrombus. The control and experimental thrombi constituting a pair were compared for statistical analysis. The total fluorescence intensity of the thrombi before and after the infusion of pyridazinone compound was recorded.
Images from a representative experiment of the recruitment of fluorescently-labeled […] platelets into a growing thrombus over time is shown in FIG. 9A.

platelets [2] = assay: agonist-induced platelet granule secretion (P-selectin expression, flow cytometry); assay type: cell-based, human
Method: In order to assay platelet activation by cell surface marker expression, fresh PRP is isolated from donors who have not ingested aspirin for two weeks prior to donation. PRP (40 μl) is incubated with known or suspected inhibitor in DMSO or DMSO alone for 15 min. The sample is then incubated with the indicated agonist (e.g., SFLLR) for 10 min. Following incubation of the sample with the indicated agonist, 10 μl of reaction mixture is transferred to 5 μl of phycoerythrin (PE)-conjugated AC 1.2 anti-P-selectin antibody (for assessment of P-selectin surface expression) or fluorescein isothiocyanate (FITC)-conjugated PAC-1 antibody (for assessment of GPIIbIIIa activation). PBS (500 μl) is added to the sample after a 20 min incubation and the platelets are analyzed immediately by flow cytometry. Flow cytometry can be performed using, for example, a Becton-Dickinson FACSCalibur flow cytometer or its equivalent. Fluorescent channels are set at logarithmic gain. Ten thousand particles are acquired for each sample. A 530/30 band pass filter is used for FL-1 fluorescence. A 585/42 band pass filter is used for FL-2 fluorescence. FITC is measured in the FL-1 channel and PE is measured in the FL-2 channel. Data are analyzed using, for example, CellQuest software on a Macintosh PowerPC, or their equivalents. […]
Each of the compounds was tested for inhibition of platelet activation in response to the agonists SFLLR (a thrombin mimic), U46619 (a thromboxane A2 mimic), ADP and the phorbol ester PMA.
Compounds were also tested by flow cytometry for the inhibition of SFLLR-induced GPIIbIIIa activation and P-selectin expression. In these experiments, freshly obtained PRP was prepared from healthy volunteers who had not ingested aspirin for two weeks prior to donation. Forty μl of PRP was incubated with inhibitor in DMSO or DMSO alone for 15 min. The sample was then incubated with the indicated agonist for 10 min. Following incubation of the sample with the indicated agonist, 10 μl of reaction mixture was transferred to 5 μl of PE-conjugated AC1.2 anti-P-selectin antibody (for assessment of P-selectin surface expression) or FITC-conjugated PAC-1 antibody (for assessment of GPIIbIIIa activation). PBS (500 μl) was added to the sample after a 20 min incubation and the platelets were analyzed immediately by flow cytometry. Flow cytometry was performed using a Becton-Dickinson FACSCalibur flow cytometer. Fluorescent channels were set at logarithmic gain. Ten thousand particles were acquired for each sample. A 530/30 band pass filter was used for FL-1 fluorescence. A 585/42 band pass filter was used for FL-2 fluorescence. FITC was measured in the FL-1 channel and PE was measured in the FL-2 channel. Data were analyzed using CellQuest software on a MacIntosh PowerPC.
Compound was tested for its ability to inhibit SFLLR-, U46619-, ADP-, PMA-, and collagen I-induced platelet α-granule secretion. In these assays, platelets were incubated with increasing doses of compound for 30 minutes. The platelets were then exposed to a maximally stimulatory dose of the indicated agonist. P-selectin surface expression was analyzed by flow cytometry using phycoerythrin-anti-P-selectin to monitor for α-granule secretion.

[3] = test system: PGE1-induced cAMP levels in platelets; assay: augmentation of PGE1-induced cAMP levels in platelets; assay type: cell-based, human; conditions: in words
Method: (A) Compound was tested for its ability to inhibit SFLLR-, U46619-, ADP-, PMA-, and collagen I-induced platelet α-granule secretion. (B) The effect of the compound on PGE1-stimulated cAMP elevation was analyzed. Platelets were incubated with increasing doses of pyridazinone compound for 30 minutes prior to the 2 minute incubation with PGE1. Platelets were subsequently lysed and cAMP level was assayed using a commercially available ELISA kit (Liao et al., 1998, Eur J Pharmacol 349, 107–14). […] Error bars represent mean ±1 SD (n=4), *P<0.001.
One frequent target of anti-platelet agents is phosphodiesterase III (PDE III). […] The assay is performed as described by Liao et al., 1998, Eur J Pharmacol 349,107–114, incorporated herein by reference. Briefly, aliquots of PRP are exposed to increasing concentrations of the agent for 20 minutes. The PRP is then challenged with 1 μM PGE1 for 2 min The reaction is stopped by adding 10 mM EDTA, followed immediately by boiling for 2 min. The mixture is cooled to 4° C. and the precipitated protein is pelleted. cAMP content in the supernatant is quantitated using an enzyme immunoassay kit (Pharmacia-Amersham, NJ) according to the instructions of the manufacturer.
In order to assess whether the compounds useful according to the invention might act through inhibition phosphodiesterase III, each was tested for its effect on PGE1-induced cAMP increase. Determination of platelet cAMP levels was performed as described by Liao et al., 1998, supra. Aliquots of PRP were exposed to increasing concentrations of the indicated compounds for 20 min. PRP was then challenged with 1 μM PGE1 for 2 min. The reaction was stopped with the addition of 10 mM EDTA followed immediately by boiling for 2 min. The mixture was then cooled to 4° C. and the precipitated protein was pelleted. Cyclic AMP content in the supernatant was then quantified using an enzyme immunoassay kit (Pharmacia-Amersham, NJ) according to the instructions of the manufacturer.

platelets [4] = assay: platelet aggregation (aggregometer); assay type: cell-based, human; conditions: in words
Method: Platelet aggregation profiling is a standard methodology, generally performed with an instrument adapted for that express purpose, for example, a Platelet Aggregation Profiler (BioData, Horsham, Pa.). The assays can generally be performed according to the instructions of the manufacturer. As exemplary conditions, 400 μl of PRP are incubated with inhibitor for 15 minutes at room temperature. The sample is then incubated for 3 minutes at 37° C. in the Platelet Aggregation Profiler. The instrument is calibrated with platelet poor plasma serving as a blank. A baseline tracing is established by monitoring the light transmittance of PRP being stirred at 1200 rpm. Aggregation is initiated by the addition of SFLLR (200 μM) and the percent of platelet aggregation is measured by the change in light transmittance for 6 minutes following addition of SFLLR.

[5] = test system: platelet protein palmitoylation; assay: incorporation of [3H]-palmitate into platelet proteins; assay type: cell-based; conditions: 100 μM compound; 20 μM or 200 μM SFLLRN; in words
Method: Platelets were labeled with [^3H]-palmitate for 2 hours in the absence (lanes 1, 2, and 3) or presence (lanes 4, 5, and 6) of 100 μM JF081204{5C} for 2 hours. Labeled platelets were then incubated with 0 μM ([…]), 20 μM (lanes 2 and 5), or 200 μM SFLLRN (lanes 3 and 6). Platelet samples were lysed, separated by SDS-PAGE, Western blotted, and visualized with a tritium imager screen (Panel a). The activation of platelets by SFLLRN led to an increase incorporation of [^3H]-palmitate into platelet proteins, whereas the presence of JF081204{5C} inhibited this activation-dependent [^3H]-palmitate incorporation (Panel b). Western blot membrane from panel (a) was stained with Ponceau S to visualize proteins in the platelet lysates.
The incorporation of [^3H]-palmitate into platelet intracellular proteins was examined to determine the effect of JF081204{5C} on platelet protein palmitoylation. […] Exposure of platelets to either 20 μM or 200 μM SFLLRN increased the intensity of the labeling. Incubation of platelets with 100 μM of JF081204 {5C} inhibited the increase in [^3H]-palmitate incorporation induced by either 20 μM or 200 μM SFLLRN.

[6] = test system: patients suffering intermittent claudication; conditions: cited from earlier work

With “9-methylene-4-(alkyl)-2,3,4,9-tetrahydro-1H-cyclopenta(b)quinoline” the “activation of mouse platelets by several platelet agonists” value (mouse platelets) was “inhibits activation of mouse platelets” and the “thrombosis following laser-induced injury (reduction)” value ([1]; bolus 6 mg/kg/5 min then continuous infusion 3 mg/kg/90 min, 36 thrombi in 5 mice) was “greater than 80%”.
With CC1CC(=O)NN=C1c1ccc(Cl)cc1 (stereo not drawn) [Structure 9, 6-(4-chlorophenyl)-5-methyl-4,5-dihydro-5 methyl-3(2H)-pyridazinone] the “effect on PMA-induced platelet activation” value (platelets [2]; in words) was “did not inhibit”.
In the case of Nc1cc2cccnc2c2ncccc12 [[1,10]Phenanthroline-5-ylamine, [1,10] Phenanthroline-5-ylamine], the “effect on PGE1-stimulated cAMP levels in platelets” value [3] is reported as “failed to augment” and the “effect on PMA-induced platelet activation” value (platelets [2]; in words) is reported as “did not inhibit”.
In the case of CCCCCn1c2c(c(=N)c3ccccc31)CCC2 [JF081204{5C}], the “inhibition of U46619- and collagen-induced platelet aggregation” value (platelets [4]) is reported as “not effective”, the “IC50s for U46619-, A23187-, and PMA-induced P-selectin expression less potent than SFLLR” value (platelets [2]; U46619, A23187, PMA vs SFLLR) is reported as “at least 150 fold” and the “median of maximum platelet accumulation compared to absence of compound” value ([1]; 3 mg/kg (P<0.002) and 6 mg/kg (P<0.02), in words) is reported as “statistically significant decrease”. For the same compound, the “median stabilized platelet accumulation” value ([1]; 3 mg/kg (P<0.01) and 6 mg/kg (P<0.001), in words) was “dose-dependent inhibition”, the “delay in onset of platelet accumulation (time to 50% maximum platelet accumulation)” value ([1]; 1, 3 and 6 mg/kg, in words) was “statistically significant delay” and the “SFLLRN activation-dependent [3H]-palmitate incorporation into platelet proteins” value [5] was “inhibited”.
With Cn1cc(/C=N/NC(N)=O)c2ccccc21 [2-[(1-methyl-1H-indol-3-yl)methylene]-hydrazinecarboxamide] the “effect on PGE1-stimulated cAMP levels in platelets” value [3] was “augmented cAMP levels”, the “effect on ADP-induced activation” value (platelets [2]; ADP-induced, in words) was “little effect” and the “effect on PMA-induced platelet activation” value (platelets [2]; in words) was “little effect”.
In the case of O=C1CCc2cc(OCCCCc3nnnn3C3CCCCC3)ccc2N1 [cilostazol], the “increase of the distance of pain free walking” value [6] is given as “up to 59%”.
